Test results reported in patent US9393316B2, “Cancer targeting peptides for enhancing anti-cancer drug delivery and therapeutic efficiencies” (priority 2014, dated 2016).
Blank lines part the entries; values can stand above or below the compound they belong to.

What was measured:
colorectal cancer = test: Cytotoxicity of several anticancer drugs; assay type: cell-based; conditions: compared with other colon and rectal cancer drugs approved by the FDA
HCT116 xenografts [1] = test: In vivo peptide competitive inhibition of phage tumor homing; set-up: species or system mice; conditions: co-injected with corresponding phage clone
Procedure: (§1) Non-obese diabetic-severe combined immunodeficiency (NOD/SCID) mice were injected subcutaneously (s.c.) into the dorsolateral flank with 5×10^6 HCT116 cells. When the xenograft tumor size reached 300±50 mm^3, the mice were injected intravascularly (i.v.) with 2×10^11 pfu of the targeting phage or control phage M13KO7. Seven min after injection, the mice were sacrificed and perfused through the heart with 50 mL of PBS to wash unbound phages. After perfusion, xenograft tumor and mouse organs were taken out, washed three times with cold PBS, and cut into pans, with some of them homogenized. The phages bound to each tissue sample were recovered by log-phase Escherichia coli ER2738 culture and were titered on LB/IPTG/X-Gal agar plates. In peptide competitive inhibition experiments, 2×10^9 pfu of phage was co-injected with 100 μg of corresponding peptide or an unrelated control peptide.
The tumor-homing ability of HCT63, HCT69 and HCT74 phages were further confirmed by peptide competitive inhibition experiment. Mice bearing HCT116 xenografts were co-injected with HCT63, HCT69 and HCT74 phages clones and the homologous cognate synthetic peptide; pHCT63, pHCT69 and pHCT74 peptides (SEQ ID NOs: 1-3, respectively), respectively.

HCT116 cells [2] = test: ELISA screening of phage clones on HCT116 cells (cellular ELISA); assay type: binding, human; conditions: HCT116, cell line panel
Procedure: (§2) The selected phages were further identified by ELISA screening. 1×10^4 cells were seeded into each well of 96-well ELISA plates (Falcon, Calif., USA) overnight and were fixed with 2% paraformaldehyde or methanol/acetone (1:1) for 10 min at RT. The plates were washed twice with PBS and were blocked with 1% BSA in PBS (w/v) for 30 min at RT. Then individual phage clones were added and incubated for 1 hr at RT. Following washing three times with PBS, the plates were incubated with horseradish peroxidase (HRP)-conjugated mouse anti-M13 phage antibody (GE Healthcare) at 1:2000 dilution for 1 hr at RT. The plates were washed three times with PBS again, and were subsequently incubated with the peroxidase substrate o-phenylenediamine dihydrochloride (OPD; Sigma) plus H2O2. The reaction was terminated by 3 N HCl, and the absorbance was measured using microplate reader (Model 680, BioRad) at 490 nm.

COLO205 = test: Flow cytometry surface binding of phage clones; set-up: species or system human
Procedure: (§3) Cells were grown to 70-80% confluence and were harvested with 10 mM EDTA in PBS. Peripheral blood mononuclear cells were prepared by using Ficoll-Paque Plus density gradient separation. After washing and suspending the cells with FACS buffer (PBS containing 1% fetal bovine serum), the cells were incubated for 1 hr at 4° C. with 5×10^9, 1×10^9 cfu individual phage clones or control phage, respectively. After washing twice with FACS buffer, cells were incubated with mouse anti-M13 monoclonal antibody (GE Healthcare) at 1:2000 dilution for 1 hr followed by 30 min with phycoerythrin (PE)-conjugated goat anti-mouse secondary antibody (Jackson ImmunoResearch) at 1:250 dilution at 4° C. The emission fluorescence signals were measured using FACSCantoll (Becton Dickinson) and were analyzed by FlowJo software.

HCT116 cells [3] = test: Flow cytometry surface binding of phage clones; set-up: species or system human
Procedure: as §3

HT29 = test: Flow cytometry surface binding of phage clones; set-up: species or system human
Procedure: as §3

LS174T = test: Flow cytometry surface binding of phage clones; set-up: species or system human
Procedure: as §3

SW620 = test: Flow cytometry surface binding of phage clones; set-up: species or system human
Procedure: as §3

[4] = system: peripheral blood mononuclear cells (PBMC); test: Flow cytometry binding of phage clones to normal cells; conditions: human PBMC
Procedure: as §3

HCT116 xenografts [5] = test: In vivo tumor homing, phage titer in tumor and organs; set-up: species or system mice; conditions: 2×10^11 pfu i.v., PBS perfusion; vs brain, lungs, heart
Procedure: as §1
To investigate the targeting ability of the selected phage clones in vivo, mice bearing HCT116 xenografts (300 mm^3) were injected with 2×10^11 pfu of either the selected phages or control phage through the tail vein. Phages were circulated and then were perfused with PBS buffer to wash out non-specific binders in circulation. After perfusion, we recovered and determined the […] of phage in tumor masses and normal organs.

HCT116 xenografts [6] = test: Immunohistochemical localization of phages in xenograft tumor and organs; assay type: in vivo, mice; conditions: tumor vs brain, heart, lungs, colon
Procedure: The tissue samples from in vivo phage homing experiment were embedded in frozen blocks. To evaluate the phage distribution in each tissue by immunohistochemistry, the frozen specimens were cut to 8-μm-thick sections and were collected on coated slides. The slides were washed with cold PBS to remove OCT and were fixed with 4% paraformaldehyde for 10 min at RT. To block endogenous peroxidase activity, the slides were soaked with 3% hydrogen peroxide in methanol for 30 min at RT. The nonspecific antibody binding sites were blocked by immersing the section with 1% BSA in PBS for 30 min at RT. The tissue sections were incubated with mouse anti-M13 monoclonal antibody at 1:250 dilution for 1 hr, followed by adding Super Enhancer reagent (Super SENSITIVE™ Polymer HRP Detection System/DAB, BioGenex) for 20 min and Poly-HRP reagent (BioGenex) for 30 min. After washing, the sections were developed with DAB (3,3′-diaminobenzidine) Chromogen (BioGenex) supplemented with Stable DAB buffer. The reaction was stopped by adding PBS. For nuclei staining, the slides were immersed in hematoxylin for 5 min, and were then mounted with mounting solution to terminate the reaction. The images of sections were taken and analyzed using automated acquisition system (TissueGnostics).

1112SK = test: Cellular ELISA of phage clones; assay type: binding, human
Procedure: as §2, with “nm. To evaluate the binding activities of the three selected phage clones to various human cancer cell lines, cellular ELISA was performed to detect sixteen types of human cancer cell lines, including A498, HTB-10, B16-F10, SKOV3, PC-3, U2OS, 1112SK, […], SAS, H460, MIA Paca-2, HCT116, HUVAC, CL1-5, Mahlavu, and MDA-MB-231.” for “nm.”

A498 = test: Cellular ELISA of phage clones; assay type: binding, human
Procedure: as §2, with “nm. To evaluate the binding activities of the three selected phage clones to various human cancer cell lines, cellular ELISA was performed to detect sixteen types of human cancer cell lines, including A498, HTB-10, B16-F10, SKOV3, PC-3, U2OS, 1112SK, […], SAS, H460, MIA Paca-2, HCT116, HUVAC, CL1-5, Mahlavu, and MDA-MB-231.” for “nm.”

CL1-5 = test: Cellular ELISA of phage clones; assay type: binding, human
Procedure: as §2, with “nm. To evaluate the binding activities of the three selected phage clones to various human cancer cell lines, cellular ELISA was performed to detect sixteen types of human cancer cell lines, including A498, HTB-10, B16-F10, SKOV3, PC-3, U2OS, 1112SK, […], SAS, H460, MIA Paca-2, HCT116, HUVAC, CL1-5, Mahlavu, and MDA-MB-231.” for “nm.”

H184 = test: Cellular ELISA of phage clones; assay type: binding, human
Procedure: as §2, with “nm. To evaluate the binding activities of the three selected phage clones to various human cancer cell lines, cellular ELISA was performed to detect sixteen types of human cancer cell lines, including A498, HTB-10, B16-F10, SKOV3, PC-3, U2OS, 1112SK, […], SAS, H460, MIA Paca-2, HCT116, HUVAC, CL1-5, Mahlavu, and MDA-MB-231.” for “nm.”

H460 = test: Cellular ELISA of phage clones; assay type: binding, human
Procedure: as §2, with “nm. To evaluate the binding activities of the three selected phage clones to various human cancer cell lines, cellular ELISA was performed to detect sixteen types of human cancer cell lines, including A498, HTB-10, B16-F10, SKOV3, PC-3, U2OS, 1112SK, […], SAS, H460, MIA Paca-2, HCT116, HUVAC, CL1-5, Mahlavu, and MDA-MB-231.” for “nm.”

HUVAC = test: Cellular ELISA of phage clones; assay type: binding, human
Procedure: as §2, with “nm. To evaluate the binding activities of the three selected phage clones to various human cancer cell lines, cellular ELISA was performed to detect sixteen types of human cancer cell lines, including A498, HTB-10, B16-F10, SKOV3, PC-3, U2OS, 1112SK, […], SAS, H460, MIA Paca-2, HCT116, HUVAC, CL1-5, Mahlavu, and MDA-MB-231.” for “nm.”

MDA-MB-231 = test: Cellular ELISA of phage clones; assay type: binding, human
Procedure: as §2, with “nm. To evaluate the binding activities of the three selected phage clones to various human cancer cell lines, cellular ELISA was performed to detect sixteen types of human cancer cell lines, including A498, HTB-10, B16-F10, SKOV3, PC-3, U2OS, 1112SK, […], SAS, H460, MIA Paca-2, HCT116, HUVAC, CL1-5, Mahlavu, and MDA-MB-231.” for “nm.”

MIA Paca-2 = test: Cellular ELISA of phage clones; assay type: binding, human
Procedure: as §2, with “nm. To evaluate the binding activities of the three selected phage clones to various human cancer cell lines, cellular ELISA was performed to detect sixteen types of human cancer cell lines, including A498, HTB-10, B16-F10, SKOV3, PC-3, U2OS, 1112SK, […], SAS, H460, MIA Paca-2, HCT116, HUVAC, CL1-5, Mahlavu, and MDA-MB-231.” for “nm.”

Mahlavu = test: Cellular ELISA of phage clones; assay type: binding, human
Procedure: as §2, with “nm. To evaluate the binding activities of the three selected phage clones to various human cancer cell lines, cellular ELISA was performed to detect sixteen types of human cancer cell lines, including A498, HTB-10, B16-F10, SKOV3, PC-3, U2OS, 1112SK, […], SAS, H460, MIA Paca-2, HCT116, HUVAC, CL1-5, Mahlavu, and MDA-MB-231.” for “nm.”

PC-3 = test: Cellular ELISA of phage clones; assay type: binding, human
Procedure: as §2, with “nm. To evaluate the binding activities of the three selected phage clones to various human cancer cell lines, cellular ELISA was performed to detect sixteen types of human cancer cell lines, including A498, HTB-10, B16-F10, SKOV3, PC-3, U2OS, 1112SK, […], SAS, H460, MIA Paca-2, HCT116, HUVAC, CL1-5, Mahlavu, and MDA-MB-231.” for “nm.”

SAS = test: Cellular ELISA of phage clones; assay type: binding, human
Procedure: as §2, with “nm. To evaluate the binding activities of the three selected phage clones to various human cancer cell lines, cellular ELISA was performed to detect sixteen types of human cancer cell lines, including A498, HTB-10, B16-F10, SKOV3, PC-3, U2OS, 1112SK, […], SAS, H460, MIA Paca-2, HCT116, HUVAC, CL1-5, Mahlavu, and MDA-MB-231.” for “nm.”

SKOV3 = test: Cellular ELISA of phage clones; assay type: binding, human
Procedure: as §2, with “nm. To evaluate the binding activities of the three selected phage clones to various human cancer cell lines, cellular ELISA was performed to detect sixteen types of human cancer cell lines, including A498, HTB-10, B16-F10, SKOV3, PC-3, U2OS, 1112SK, […], SAS, H460, MIA Paca-2, HCT116, HUVAC, CL1-5, Mahlavu, and MDA-MB-231.” for “nm.”

U2OS = test: Cellular ELISA of phage clones; assay type: binding, human
Procedure: as §2, with “nm. To evaluate the binding activities of the three selected phage clones to various human cancer cell lines, cellular ELISA was performed to detect sixteen types of human cancer cell lines, including A498, HTB-10, B16-F10, SKOV3, PC-3, U2OS, 1112SK, […], SAS, H460, MIA Paca-2, HCT116, HUVAC, CL1-5, Mahlavu, and MDA-MB-231.” for “nm.”

B16-F10 = test: Cellular ELISA of phage clones; assay type: binding, mouse
Procedure: as §2, with “nm. To evaluate the binding activities of the three selected phage clones to various human cancer cell lines, cellular ELISA was performed to detect sixteen types of human cancer cell lines, including A498, HTB-10, B16-F10, SKOV3, PC-3, U2OS, 1112SK, […], SAS, H460, MIA Paca-2, HCT116, HUVAC, CL1-5, Mahlavu, and MDA-MB-231.” for “nm.”

Compound: CCC1=C[C@@H]2CN(C1)Cc1c([nH]c3ccccc13)[C@@](C(=O)OC)(c1cc3c(cc1OC)N(C)[C@H]1[C@@](O)(C(=O)OC)[C@H](OC(C)=O)[C@]4(CC)C=CCN5CC[C@]31[C@@H]54)C2 [Vinorelbine, vinorelbine]
cytotoxicity profile (colorectal cancer): significantly better cytotoxicity profiles

Compound: RLNLDIIAVTSV (HCT-63) [pHCT63]
inhibition of phage recovery from tumor tissue by cognate peptide (HCT116 xenografts [1]): markedly inhibited the recovery of phage particles from tumor tissue

binding activity by FACS (COLO205): moderately | binding activity by FACS (HT29): reacted strongly | binding activity by FACS (LS174T): reacted strongly | binding activity by FACS (SW620): reacted strongly | binding by cellular ELISA (1112SK): high binding specificity | binding by cellular ELISA (A498): high binding specificity | binding by cellular ELISA (CL1-5): high binding specificity | binding by cellular ELISA (H184): high binding specificity | binding by cellular ELISA (H460): high binding specificity | binding by cellular ELISA (HUVAC): high binding specificity | binding by cellular ELISA (MDA-MB-231): high binding specificity | binding by cellular ELISA (MIA Paca-2): high binding specificity | binding by cellular ELISA (Mahlavu): high binding specificity | binding by cellular ELISA (PC-3): high binding specificity | binding by cellular ELISA (SAS): high binding specificity | binding by cellular ELISA (SKOV3): high binding specificity | binding by cellular ELISA (U2OS): high binding specificity | binding by cellular ELISA (B16-F10): high binding specificity
Compound: RLNLDIIAVTSV [HCT63]
binding by cellular ELISA (HCT116 cells [2]): high binding specificity | cell surface-binding activity by flow cytometry (HCT116 cells [3]): reacted strongly | binding activity to PBMC (normal cells) by FACS [4]: not to normal cells | phage accumulation in tumor mass vs normal organs (phage titer) (HCT116 xenografts [5]): significantly accumulated in the tumor mass | phage localization by immunostaining of tissue sections (HCT116 xenografts [6]): selectively localized in tumor tissues | phage localization by immunostaining of tissue sections (HCT116 xenografts [6]; listed as HCT-63): strong accumulated in the tumor
